The values that follow come from patent publication US20250092269A1, “ANTI-BIOFOULING COMPOSITION” (Montana Technological University, priority 2023, published 2025).

Data set [1] in a line: Membrane performance (water quantity output) in bench scale nanofiltration system. Conditions: electrospun 3:1 PCL:PEG fibers with Urolithin A 200 μg/mL; 4-hour operation. The text has this:
(§1) Bench Scale Nanofiltration System: A bench scale nanofiltration system for monitoring water output efficiencies and biofilm formation on MCE membranes was used as illustrated in FIG. 2.
In this example, biofouling on filtration membranes was investigated by examining anti-quorum sensing molecules in P. aeruginosa (PAO1). More specifically, a membrane comprising an unmodified membrane (referred to “MCE Control”); a membrane (referred to as “Control Fibers”) comprising a filter coating, which was deposited by electrospinning fibers comprising a polymer blend (3:1 polycaprolactone (PCL) to polyethylene glycol (PEG)); and a membrane (referred to as “Anti-QS Fibers” comprising a filter coating, which was deposited by electrospinning fibers comprising a polymer blend (3:1 polycaprolactone (PCL) to polyethylene glycol (PEG)) associated with one or more anti-QS molecules (200 μg/mL). Biofilm growth over a 4-hour operation was investigated and compared for the MCE Control, Control Fibers, and Anti-QS Fibers.

Data set [2] relates to biofilm. The data set can be described thus: Biofilm growth on membranes with Urolithin A fibers at 50, 100, 200 μg/mL (CLSM). It counts as cell-based. Conditions: PCL/PEG fibers with Urolithin A 50, 100, 200 μg/mL; FIG. 6A-6D. On the procedure:
as §1
In this example, biofouling on filtration membranes was investigated by comparing membranes comprising a filter coating associated with one or more anti-QS Urolithin A molecules having concentrations of 50 μg/mL, 100 μg/mL, and 200 μg/mL.
FIG. 6A is a confocal microscopy (CLSM) image showing the biofilm growth on an unmodified control membrane. FIG. 6B is a confocal microscopy (CLSM) image showing the biofilm growth on a membrane comprising electrospun PCL/PEG fibers associated with one or more anti-QS Urolithin A molecules (50 μg/mL). FIG. 6C is a confocal microscopy (CLSM) image showing the biofilm growth on a membrane comprising electrospun PCL/PEG fibers associated with one or more anti-QS Urolithin A molecules (100 μg/mL). FIG. 6D is a confocal microscopy (CLSM) image showing the biofilm growth on a membrane comprising electrospun PCL/PEG fibers associated with one or more anti-QS Urolithin A molecules (200 μg/mL).

For a further data set, the system named is P. aeruginosa (PAO1). The data set can be described thus: Biofilm growth on filtration membranes in bench scale nanofiltration system, 4-hour operation (CLSM). It counts as cell-based, Pseudomonas aeruginosa. On the procedure: Polymeric Component: A polymer blend for electrospinning was prepared comprising 3 wt. % PEG (8,000 MW, Sigma Aldrich) and 8.9 wt. % PCL (80,000 MW, Sigma Aldrich) in chloroform. The PEG/PCL polymer blend was stirred with a Teflon coated stir bar at 80° C. until no visible polymer weas present.
Anti-Quorum Sensing Molecules: The polymeric component comprising the polymer blend was seeded with Urolithin A at a concentration of 200 μg/mL during mixing. Fiber mats comprising Urolithin A were stored at 4-8° C. for preservation prior to application.
Electrospinning: The polymeric component comprising the polymer blend was pumped continuously by a syringe pump at a fixed rate of 0.250 mL/hour to a vertical Spraybase electrospinner equipped with a 22-guage needle at a voltage of 6.6 kV and grounded equidistant copper-plated parallel electrodes for uniaxially aligned deposition (parallel gap electrospinning). A separation distance of 4 cm between the needle and grounded electrodes were maintained for 20 minutes while the fiber mat was fabricated. Fiber mats were rotated at 10 minutes to achieve a crosshatch filter pattern. Fibers were then placed onto MCE membranes and investigated for their controlled release of the anti-QS molecules. […]

Data set [3] concerns biofilm. Description: Biofilm biovolume after 4-hour filtration test, furanone C-30 fibers vs control fibers (SEM). In kind it is cell-based. The note with it: furanone C-30 control-released from 3:1 PCL/PEG fibers on MCE filter.
From the text: as §1
In this example, a membrane comprising a filter coating, which was deposited by electrospinning fibers comprising a polymer blend (3:1 polycaprolactone (PCL) to polyethylene glycol (PEG)) associated with one or more anti-QS molecules furanone C-30 was compared to a control membrane comprising a filter coating, which was deposited by electrospinning fibers comprising a polymer blend (3:1 polycaprolactone (PCL) to polyethylene glycol (PEG).
FIG. 8A is a scanning electron micrograph image showing the biofilm biovolume after a 4-hour filtration test of a MCE filter comprising electrospun PCL/PEG fibers. FIG. 8B is a scanning electron micrograph image showing the biofilm biovolume after a 4-hour filtration test of a MCE filter comprising electrospun PCL/PEG fibers associated with one or more anti-QS furanone C-30 molecules.

Each structure is given as a SMILES string.

On to `O=c1oc2cc(O)ccc2c2ccc(O)cc12` [Urolithin A], for which the increase of flux in data set [1] is reported as 52.78%. The “biofilm biovolume vs concentration of Urolithin A in fibers” value with biofilm [2] is reported as “biofilm biovolume reduction corresponding to the increased concentrations”. The “reduction of biofilm formation during filtration compared to the MCE Control” value in the data set on P. aeruginosa (PAO1) (electrospun 3:1 PCL:PEG coating with Urolithin A 200 μg/mL) worked out at 83.48%. Also, the “increase of biovolume reduction by controlled release of anti QS molecules” value in the data set with P. aeruginosa (PAO1) (electrospun 3:1 PCL:PEG fibers with Urolithin A 200 μg/mL) was determined as 26.05%.
`O=C1C=C(Br)/C(=C/Br)O1` [furanone C-30]: the “reduction in biovolume relative to the control membrane (PCL/PEG fibers)” value with biofilm [3] is 57.5%.
